Assay [1] concerns the target T1, Free fatty acid receptor 1 (FFA1R) (GPR40) (Homo sapiens, UniProt O14842).
T1 construct: host or cells: HEK-293 cells
Kind of assay: FFA1R/GPR40 functional agonist assay (Ca2+ mobilization, HEK-293 cells). The settings on record: 100 µM; % of control response to 100 µM linoleic acid. The class given is cell-based. The protocol: The in-house assay protocol and experimental conditions are reported in our previous reports. […] Then, the mixture of fluorescent probe (Fluo4 Direct, Invitrogen) and probenecid in HBSS buffer (Invitrogen) complemented with 20 mM Hepes (Invitrogen) (pH 7.4) was added into each well and incubated for 60 min at 37 °C, followed by 15 min incubation at 22 °C. Thereafter, the assay plates were positioned in a CellLux microplate reader (PerkinElmer, Waltham, MA, USA) which was used for the addition of the following: For agonist assay-test compound, reference agonist, or HBSS buffer (basal control). Linoleic acid at 100 μM was added in separate assay wells for stimulated control measurement.
(Calcium assays in cells follow changes in intracellular calcium, usually with a dye or a luminescent sensor.)

Assay [2] deals with T2, Alpha-2C adrenergic receptor (hα2CAR) (Homo sapiens, UniProt P18825).
T2 construct: host or cells: CHO cells
T2 sequence (P18825 1-462): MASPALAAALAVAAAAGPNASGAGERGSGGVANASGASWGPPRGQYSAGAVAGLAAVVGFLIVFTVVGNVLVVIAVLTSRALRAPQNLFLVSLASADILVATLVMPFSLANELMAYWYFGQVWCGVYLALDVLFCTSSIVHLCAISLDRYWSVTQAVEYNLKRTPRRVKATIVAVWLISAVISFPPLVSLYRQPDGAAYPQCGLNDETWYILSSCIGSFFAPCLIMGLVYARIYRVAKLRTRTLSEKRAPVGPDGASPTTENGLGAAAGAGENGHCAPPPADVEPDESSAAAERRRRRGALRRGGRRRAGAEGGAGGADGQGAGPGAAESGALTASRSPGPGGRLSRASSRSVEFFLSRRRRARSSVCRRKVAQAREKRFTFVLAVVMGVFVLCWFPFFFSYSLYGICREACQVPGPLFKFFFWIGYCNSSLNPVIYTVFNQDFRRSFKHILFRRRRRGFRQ
Kind of assay: hα2CAR functional antagonist assay (cAMP, HTRF, CHO cells). The following applies: read-out: Antagonist Effect. The class given is cell-based. The protocol:
(§1) The in-house assay protocol and experimental conditions are reported in our previous reports. The functional effect of dieckol and PFF-A was characterized based on their modulation effect on cytosolic Ca^2+ ion mobilization using a fluorimetric detection method or by measuring their effect on cAMP modulation using homogeneous time-resolved fluorescence (HTRF) detection.
(§2) Functional activity of phlorotannins over hA2AR, hα2CAR, hCB1R, GLP-1R, and h5-HT1BR was determined by measuring their effects on cAMP production by the HTRF detection method using transected cells expressing human cloned receptors.
After 10 min at 37 °C, the cells were lysed and the fluorescence acceptor (D2-labeled cAMP) and fluorescence donor (anti-cAMP antibody labeled with europium cryptate) were added.
(In general: Time-resolved FRET reads energy transfer from a long-lived donor to a nearby acceptor.)

Assay [3] addresses T3, Vasopressin 1A receptor (hV1AR) (Homo sapiens, UniProt P37288).
T3 construct: host or cells: CHO-V1AR cells
Kind of assay: hV1AR functional agonist assay (Ca2+ mobilization, CHO-V1AR cells). The settings on record: for Agonist Effect: % of control response to 1 µM AVP. The class given is cell-based.
Excerpt: as §1
Then, fluorescent probe (Fluo4, Invitrogen) mixed with probenecid in HBSS buffer (Invitrogen, Carlsbad, CA, USA) supplemented with 20 mM HEPES, pH 7.4 (Invitrogen) was added to each well, allowing to equilibrate with the cells for 60 min at 37 °C, then 15 min at 22 °C.

The target in assay [4] is T4, Alpha-2A adrenergic receptor (hα2AAR) (Homo sapiens, UniProt P08913).
T4 construct: host or cells: rat basophil leukemia cells
T4 sequence (P08913 1-465): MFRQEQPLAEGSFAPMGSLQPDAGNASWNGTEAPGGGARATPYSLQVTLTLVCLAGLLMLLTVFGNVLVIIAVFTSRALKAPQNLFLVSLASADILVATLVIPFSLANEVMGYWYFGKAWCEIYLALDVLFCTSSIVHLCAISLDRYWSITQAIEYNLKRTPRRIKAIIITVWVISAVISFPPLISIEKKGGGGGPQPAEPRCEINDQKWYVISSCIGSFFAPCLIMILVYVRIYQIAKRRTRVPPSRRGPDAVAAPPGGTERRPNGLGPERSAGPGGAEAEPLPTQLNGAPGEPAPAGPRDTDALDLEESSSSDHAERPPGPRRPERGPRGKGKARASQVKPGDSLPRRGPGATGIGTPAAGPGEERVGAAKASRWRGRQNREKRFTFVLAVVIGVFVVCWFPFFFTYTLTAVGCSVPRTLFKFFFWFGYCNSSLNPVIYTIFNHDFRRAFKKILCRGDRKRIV
Description: hα2AAR functional antagonist assay (Ca2+ mobilization, rat basophil leukemia cells). The class given is cell-based. The following applies: read-out: Antagonist Effect.
Excerpt: as §1
The rat basophil leukemia cells were distributed in microplates at a density of 1.1 × 10^4 cells/well after suspending in a HBSS buffer (Invitrogen) containing 20 mM HEPES. Then, the fluorescent probe (Fluo8, AAT Bioquest) mixed with probenecid in HBSS buffer (Invitrogen) complemented with 20 mM Hepes (Millipore) (pH 7.4) was added into each well incubated for 60 min at 30 °C. Thereafter, the assay plates were positioned in a microplate reader (FlipR Tetra, Molecular Device) and we added test compounds, reference agonist/antagonist or HBSS buffer (basal control). Change in fluorescence intensity which varies proportionally to the free cytosolic Ca^2+ ion concentration was measured.

Assay [5] concerns the target T1, Free fatty acid receptor 1 (FFA1R) (GPR40). Description: FFA1R/GPR40 functional antagonist assay (Ca2+ mobilization, HEK-293 cells). The class given is cell-based. The settings on record: HEK293, read-out: Antagonist Effect.
Another assay has as its target h5-HT1BR (Homo sapiens, UniProt P28222). Description: h5-HT1BR functional antagonist assay (cAMP, HTRF, Hela cells). The class given is cell-based. The following applies: HeLa, read-out: Antagonist Effect. The protocol:
as §1, §2
Concisely, a plasmid containing the GPCR gene of interest (5-HT1B) was transfected into Hela cells. The resulting stable transfectants were suspended in HBSS buffer (Invitrogen, Carlsbad, CA, USA) containing 20 mM HEPES (pH 7.4), […], 1 mg/mL glucose, and 500 μM IBMX and distributed in microplates at a density of 2 × 10^4 cells/well. […] Then, the cells were lysed and a fluorescence acceptor (D2-labeled cAMP) and fluorescence donor (anti-cAMP antibody with europium cryptate) were added following 60 min incubation at RT.

The target in assay [6] is T3, Vasopressin 1A receptor (hV1AR). Also on record: method as in PMID 31238535. The settings on record: 100 µM, % of control response to 1 µM AVP, value extracted from previous study ref 22, cited from earlier work.

Several values for one entry are separate records, joined by “and”; a condition that tells them apart may be missing. Identical values can stand only once. Like-named read-outs stand apart in the source and are kept apart here. Marks after values point to notes of the source that are not given here.

T3 sequence (P37288 whole entry): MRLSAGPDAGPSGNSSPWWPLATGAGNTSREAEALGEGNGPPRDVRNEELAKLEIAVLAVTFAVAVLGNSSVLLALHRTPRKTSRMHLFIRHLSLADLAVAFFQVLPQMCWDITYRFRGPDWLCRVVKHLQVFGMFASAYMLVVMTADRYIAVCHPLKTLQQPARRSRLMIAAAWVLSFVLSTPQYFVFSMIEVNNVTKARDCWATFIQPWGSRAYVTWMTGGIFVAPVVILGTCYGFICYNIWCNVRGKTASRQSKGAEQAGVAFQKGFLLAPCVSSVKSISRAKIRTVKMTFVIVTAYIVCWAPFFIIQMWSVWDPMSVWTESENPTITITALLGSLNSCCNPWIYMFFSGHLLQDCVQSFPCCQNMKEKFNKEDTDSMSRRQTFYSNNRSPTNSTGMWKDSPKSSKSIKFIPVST
Chain of h5-HT1BR (P28222 whole entry): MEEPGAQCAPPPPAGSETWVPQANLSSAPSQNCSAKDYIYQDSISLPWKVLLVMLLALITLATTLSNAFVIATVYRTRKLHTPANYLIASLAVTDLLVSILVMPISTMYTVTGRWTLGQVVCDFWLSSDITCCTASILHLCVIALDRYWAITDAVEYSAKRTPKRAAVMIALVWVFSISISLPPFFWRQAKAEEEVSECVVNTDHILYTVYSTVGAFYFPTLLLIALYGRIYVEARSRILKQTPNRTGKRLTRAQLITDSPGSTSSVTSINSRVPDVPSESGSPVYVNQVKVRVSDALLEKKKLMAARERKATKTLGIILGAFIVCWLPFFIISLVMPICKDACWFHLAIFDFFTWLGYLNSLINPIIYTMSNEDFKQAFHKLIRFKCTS
T1 sequence (O14842 whole entry): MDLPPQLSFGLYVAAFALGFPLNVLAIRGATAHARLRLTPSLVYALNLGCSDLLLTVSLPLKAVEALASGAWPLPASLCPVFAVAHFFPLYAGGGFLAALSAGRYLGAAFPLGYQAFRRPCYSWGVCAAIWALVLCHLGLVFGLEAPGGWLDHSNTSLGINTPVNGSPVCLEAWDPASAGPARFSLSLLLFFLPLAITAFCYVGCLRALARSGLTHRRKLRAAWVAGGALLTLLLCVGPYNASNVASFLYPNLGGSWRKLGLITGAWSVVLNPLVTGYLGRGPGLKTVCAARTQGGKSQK

Usually EC50 stands for the concentration at which the effect is half-maximal. Take `Oc1cc(O)cc(Oc2c(O)cc(O)c3c2Oc2c(O)cc(Oc4c(O)cc(Oc5c(O)cc(O)c6c5Oc5c(O)cc(O)cc5O6)cc4O)cc2O3)c1` [Dieckol, dieckol]: the “Agonist Effect” value was 0.2 ± 1.56% in assay [1], 50.40 ± 0.42% in assay [3] (50 µM), 106.73 ± 2.97% in assay [3] (100 µM) and 118.1 ± 2.83% in assay [3] (150 µM). The inhibition at 100 µM in assay [2] is -1.2 ± 6.08%; in assay [4], 46.1 ± 20.1%; in assay [5] it was 22.6 ± 5.44%; on h5-HT1BR it was -7.3 ± 3.96%. In assay [3] (agonist effect, mean ± SD, n = 3), this compound gave an EC50 of 39.1 ± 2.12 µM. Besides, the inhibition at 200 µM on h5-HT1BR is -8.1 ± 0.85%.

With `Oc1cc(O)cc(Oc2c(O)cc(O)c3c2Oc2c(O)cc4oc5c(Oc6cc(O)cc(O)c6)c(O)cc(O)c5c4c2O3)c1` [PFF-A, phlorofucofuroeckol-A], the “Agonist Effect” value in assay [6] was 38.45 ± 7.14% and 38.45 ± 7.14 ^c %; in assay [6] (listed as Phlorofucofuroeckol-A) it was 38.45 ± 7.14 ^a %; in assay [1], −1.0 ± 0.07%. In addition, the inhibition at 100 µM is 19.2 ± 9.76% in assay [2], 20.9 ± 1.77% in assay [4], 30.1 ± 0.78% in assay [5] and -18.5 ± 2.69% at h5-HT1BR. For the same compound, the inhibition at 200 µM on h5-HT1BR is -35.5 ± 4.38%.

Source of the values: publication PMC8228075, “In Vitro and In Silico Characterization of G-Protein Coupled Receptor (GPCR) Targets of Phlorofucofuroeckol-A and Dieckol” (Marine Drugs, 2021).
